Source: the supplement of paper PMC11061612

Tests used:
Assay in all cases: Bliss excess, mean over the matrix (fraction); higher = more synergy
[1] = test system: SKN (Other Solid Carcinomas)
Outline: (§1)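 Cell lines in DMEM/F12 or RPMI with 10% FBS were plated in 1536-well plates, held 24 hours at 37°C, 5% CO2, then given two-drug dose matrices for 72 hours (DMSO typically 0.2%). Viability was read by CellTiter-Glo 2.0 luminescence and scaled as inhibition from 0 (vehicle wells) to 1 (blank wells). Combination Emax is the second-highest inhibition in the matrix; Bliss excess is observed combination effect minus expected EA + EB − EA·EB, EA and EB being single-agent effects.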

[2] = test system: MOG-G-UVW (Low Grade Glioma)
Outline: as §1

[3] = test system: NCI-H1993 (Lung Adenocarcinoma)
Outline: as §1

[4] = test system: NCI-H1355 (Lung Adenocarcinoma)
Outline: as §1

[5] = test system: EJM (Plasma Cell Myeloma)
Outline: as §1

[6] = test system: MDA-MB-453 (Breast Carcinoma)
Outline: as §1

[7] = test system: OACM5-1 (Esophageal Adenocarcinoma)
Outline: as §1

[8] = test system: A4-Fuk (B-Lymphoblastic Leukemia)
Outline: as §1

[9] = test system: COLO-668 (Small Cell Lung Carcinoma)
Outline: as §1

EW-1 (Ewing's Sarcoma) = test system: EW-1 (Ewing's Sarcoma)
Outline: as §1

[10] = test system: SNU-387 (Hepatocellular Carcinoma)
Outline: as §1

[11] = test system: SK-LU-1 (Lung Adenocarcinoma)
Outline: as §1

[12] = test system: CADO-ES1 (Ewing's Sarcoma)
Outline: as §1

[13] = test system: KOPN-8 (B-Lymphoblastic Leukemia)
Outline: as §1

[14] = test system: DU-145 (Prostate Carcinoma)
Outline: as §1

[15] = test system: LC-1-sq (Squamous Cell Lung Carcinoma)
Outline: as §1

[16] = test system: ALL-SIL (T-Lymphoblastic Leukemia)
Outline: as §1

[17] = test system: G-401 (Other Solid Carcinomas)
Outline: as §1

[18] = test system: EFO-21 (Ovarian Carcinoma)
Outline: as §1

[19] = test system: NCI-H2122 (Lung Adenocarcinoma)
Outline: as §1

SMILES	Bliss excess [1]	Bliss excess [2]	Bliss excess [3]	Bliss excess [4]	Bliss excess [5]	Bliss excess [6]	Bliss excess [7]	Bliss excess [8]	Bliss excess [9]	Bliss excess (EW-1 (Ewing's Sarcoma))	Bliss excess [10]	Bliss excess [11]	Bliss excess [12]	Bliss excess [13]	Bliss excess [14]	Bliss excess [15]	Bliss excess [16]	Bliss excess [17]	Bliss excess [18]	Bliss excess [19]
NC1(C(=O)N[C@@H](CCO)c2ccc(Cl)cc2)CCN(c2ncnc3[nH]ccc23)CC1 [Capivasertib] + CC(C)n1c(=O)n(C)c2cnc3cc(F)c(-c4ccc(OCCCN5CCCCC5)nc4)cc3c21 [AZD1390] (first compound max 10 µM, 7x7, partner max 0.3 µM)	-0.055	-0.0278	-0.0311	-0.0206	-0.0543	-0.0471	-0.0676	-0.0472	-0.0298	-0.0622	-0.101	-0.0747	-0.039	-0.0611	-0.0598	-0.0461	-0.0482	-0.0346	-0.0361	-0.0103
COc1nnc2ccc(N3CCC(c4ccc(OCCN5CCN(C)C(=O)[C@H]5C)cc4)CC3)nn12 [AZD5153] + CCN(CCO)CCCOc1ccc2c(Nc3cc(CC(=O)Nc4cccc(F)c4)[nH]n3)ncnc2c1 [AZD2811] (first compound max 1 µM, 7x7, partner max 1 µM)	-0.0711	-0.0313	-0.0401	0.0143	0.0224	-0.0087	0.0367	-0.0025	-0.0268	-0.0086	-0.0837	-0.0549	-0.0493	-0.0341	-0.0241	-0.0282	0.0139	-0.0625	-0.0771	-0.08
Cn1cnc2c(F)c(Nc3ccc(Br)cc3Cl)c(C(=O)NOCCO)cc21 [Selumetinib] + CC(C)n1c(=O)n(C)c2cnc3cc(F)c(-c4ccc(OCCCN5CCCCC5)nc4)cc3c21 [AZD1390] (first compound max 10 µM, 7x7, partner max 0.3 µM)	-0.0616	0.0397	-0.0741	0.0043	-0.0131	-0.0148	-0.0273	0.0335	0.0314	-0.0419	-0.0512	-0.02	-0.0446	0.0131	-0.0312	-0.0465	-0.0164	-0.0623	-0.026	-0.0099
Cc1c2c(nn1C)CSCc1cc(n(C)n1)CSc1cc(c3ccccc3c1)OCCCc1c(C(=O)O)n(C)c3c-2c(Cl)ccc13 [AZD5991] + CN(C)CCCOc1ccc(-c2ccc3ncc4c(c3c2)n(C2CCOCC2)c(=O)n4C)cn1 [AZD0156] (first compound max 1 µM, 7x7, partner max 1 µM)	-0.0055	-0.0104	-0.0369	-0.0298	0.0241	-0.0091	-0.0029	-0.0032	0.0135	0.0051	-0.0536	-0.0889	-0.0098	-0.118	0.0146	0.0103	0.0049	0.0014	-0.0062	0.0237
Cc1c2c(nn1C)CSCc1cc(n(C)n1)CSc1cc(c3ccccc3c1)OCCCc1c(C(=O)O)n(C)c3c-2c(Cl)ccc13 [AZD5991] + CC1(C)CCC(CN2CCN(c3ccc(C(=O)NS(=O)(=O)c4ccc(NCC5CCOCC5)c([N+](=O)[O-])c4)c(Oc4cnc5[nH]ccc5c4)c3)CC2)=C(c2ccc(Cl)cc2)C1 [Venetoclax] (first compound max 1 µM, 7x7, partner max 1 µM)	-0.0031	0.0083	0.0009	-0.0567	0.0164	0.0023	0.0228	-0.03	0.0932	0.103	-0.0426	-0.0368	-0.0023	-0.102	-0.0185	0.0184	0.0333	0.0446	-0.0608	0.0016
Cn1cnc2c(F)c(Nc3ccc(Br)cc3Cl)c(C(=O)NOCCO)cc21 [Selumetinib] + C=CCn1c(=O)c2cnc(Nc3ccc(N4CCN(C)CC4)cc3)nc2n1-c1cccc(C(C)(C)O)n1 [AZD1775] (first compound max 10 µM, partner max 1 µM)	-0.0294	-0.0144	0.0225	-0.0037	-0.0146	-0.0065	-0.0964	-0.0651	-0.0563	-0.0347	-0.0766	0.0035	-0.114	0.0681	0.0039	-0.095	-0.0934	-0.0483	-0.0834	0.0552
